ChEMBL document CHEMBL5230176, “X-ray structure of human aldo-keto reductase 1C3 in complex with a bile acid fused tetrazole inhibitor: experimental validation, molecular docking and structural analysis” (RSC Med Chem, 2023)
Activity calls are given as the source filed them. No cut-off for these calls is given here.

molecular target: T1, Aldo-keto reductase family 1 member C3 (Homo sapiens) (UniProt P42330); experiment: Inhibition of 6 His-tagged human AKR1C3 expressed in Escherichia coli BL21 (DE3) cells using 9,10-phenanthrenequinone as substrate assessed as substrate reduction by measuring change in NADPH fluorescence at 33.3 uM incubated for 30 mins by fluorescence spectroscopic analysis relative to control
T1 sequence (whole entry): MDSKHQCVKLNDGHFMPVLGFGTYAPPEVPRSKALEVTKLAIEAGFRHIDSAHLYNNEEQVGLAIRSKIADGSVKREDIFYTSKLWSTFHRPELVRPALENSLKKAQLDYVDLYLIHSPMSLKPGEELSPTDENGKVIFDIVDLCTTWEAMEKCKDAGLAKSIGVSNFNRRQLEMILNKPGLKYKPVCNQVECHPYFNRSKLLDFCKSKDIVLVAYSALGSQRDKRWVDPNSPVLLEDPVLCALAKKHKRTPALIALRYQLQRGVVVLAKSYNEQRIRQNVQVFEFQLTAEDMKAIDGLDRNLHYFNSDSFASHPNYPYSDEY

SMILES	inhibition
CCOC(=O)CC[C@@H](C)[C@H]1CC[C@H]2[C@H]3[C@H](CC[C@]12C)[C@@]1(C)CC[C@@H](OC(C)=O)C[C@H]1Cc1nnnn13	inactive
C[C@H](CCC(=O)O)[C@H]1CC[C@H]2[C@@H]3CC[C@@H]4C[C@H](O)CC[C@]4(C)[C@H]3Cc3nnnn3[C@]12C	77.9%
C[C@H](CCC(=O)O)[C@H]1CC[C@H]2[C@H]3[C@H](CC[C@]12C)[C@@]1(C)CC[C@@H](O)C[C@H]1Cc1nnnn13	14.2%

Results, then the compound that gave them:

inhibition	SMILES
inactive	COC(=O)CC[C@@H](C)[C@H]1CC[C@H]2[C@H]3[C@H](C[C@H](OC(C)=O)[C@]12C)[C@@]1(C)CC[C@@H](OC(C)=O)C[C@H]1Cc1nnnn13
inactive	C[C@H](CCC(=O)O)[C@H]1CC[C@H]2[C@H]3[C@H](C[C@H](O)[C@]12C)[C@@]1(C)CC[C@@H](O)C[C@H]1Cc1nnnn13

molecular target: T2, Aldo-keto reductase family 1 member C2 (Homo sapiens) (UniProt P52895); experiment: Inhibition of 6 His-tagged human AKR1C2 expressed in Escherichia coli BL21 (DE3) cells using 9,10-phenanthrenequinone as substrate assessed as substrate reduction by measuring change in NADPH consumption at 40 uM incubated for 15 mins by absorbance based spectroscopic analysis relative to control
T2 sequence (whole entry): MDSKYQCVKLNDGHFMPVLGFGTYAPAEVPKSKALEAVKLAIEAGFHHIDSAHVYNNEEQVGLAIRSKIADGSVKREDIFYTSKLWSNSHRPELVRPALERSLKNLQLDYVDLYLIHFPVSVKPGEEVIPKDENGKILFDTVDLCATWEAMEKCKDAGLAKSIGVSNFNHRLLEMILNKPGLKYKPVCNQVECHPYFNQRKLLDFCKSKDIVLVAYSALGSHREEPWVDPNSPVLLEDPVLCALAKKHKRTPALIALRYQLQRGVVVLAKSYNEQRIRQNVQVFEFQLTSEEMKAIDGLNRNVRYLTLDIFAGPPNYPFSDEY

inhibition [%]	SMILES
13	C[C@H](CCC(=O)O)[C@H]1CC[C@H]2[C@@H]3CC[C@@H]4C[C@H](O)CC[C@]4(C)[C@H]3Cc3nnnn3[C@]12C
